For 20 compounds, IC50 results are on record in patent US20230406860A1, “HETEROCYCLIC SPIRO COMPOUNDS AND METHODS OF USE” (AMGEN INC., priority 2020, published 2023).

Experiment [1] relates to A549 (human lung carcinoma) cells. The experiment can be described thus: Cell viability assay (CellTiter-Glo), A549. To be noted: 72 h. It is filed as cell-based. The method, then: (§1) MIA PaCa-2 (human pancreatic carcinoma; ATCC CRL-1420) or A549 (human lung carcinoma; ATCC CCL-185) cells were cultured in RPMI 1640 medium containing 10% fetal bovine serum and 1× penicillin/streptomycin/L-glutamine. Cells were seeded in 384-well plates at a density of 1.67E+04 cells/mL and incubated at 37° C., 5% CO2, overnight. Serially-diluted compound or DMSO was added to the cells, and plates were incubated at 37° C., 5% CO2 for 72 h. Cell viability was measured using a CellTiter-Glo® Luminescent Cell Viability Assay kit (Promega) according to the manufacturer's protocol. The luminescence signal of treated samples was normalized to DMSO control, and data were analyzed using a 4-parameter logistic model to calculate IC50 values.

Experiment [2] deals with GDP-bound KRAS protein (aa 1-169), containing both G12C and C118A amino acid substitutions (Homo sapiens, UniProt P01116, C118A/G12C). The experiment can be described thus: Coupled nucleotide exchange assay (SOS-mediated, AlphaScreen). It is filed as biochemical. The method, then:
Coupled Nucleotide Exchange Assay:
For all subsequent steps, DTT was added to the reaction buffer at a final concentration of 1 mM. […] The assay plates were then read on a plate reader measuring luminescence signal. Signal intensity of compound-containing wells were normalized to DMSO control, and data were analyzed using a 4-parameter logistic model to calculate IC50 values.

The test system of experiment [3] is MIA PaCa-2 (human pancreatic carcinoma) cells. The experiment can be described thus: Cell viability assay (CellTiter-Glo), MIA PaCa-2. It is filed as cell-based. To be noted: 72 h. The method, then:
as §1

[4] abbreviates: 2 h compound pre-incubation, read-out: Avg 2 h Coupled exchange IC50.
The mark [5] stands for this setting: 20 h compound pre-incubation (values marked * in Table 6), read-out: Avg 20 h Coupled exchange IC50.

Each structure is given as a SMILES string. Read-outs that look alike come from different tables or passages of the source.

Sequence of GDP-bound KRAS protein (aa 1-169), containing both G12C and C118A amino acid substitutions (P01116 1-169 isoform P01116-2 G12C/C118A): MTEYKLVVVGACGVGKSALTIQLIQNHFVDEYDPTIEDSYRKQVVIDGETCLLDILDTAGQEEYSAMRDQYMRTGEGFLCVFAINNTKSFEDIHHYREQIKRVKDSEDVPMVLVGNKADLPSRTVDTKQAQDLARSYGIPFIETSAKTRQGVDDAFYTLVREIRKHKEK

Regarding `C=CC(=O)N1CC2(CCN(c3nc4c(c(N[C@H](Cc5nnc(C)o5)CC(C)C)n3)CCC(C)(C)C4)C2)C1` [Example 1-52, 1-(6-(7,7-dimethyl-4-(((2S)-4-methyl-1-(5-methyl-1,3,4-oxadiazol-2-yl)-2-pentanyl)amino)-5,6,7,8-tetrahydro-2-quinazolinyl)-2,6-diazaspiro[3.4]octan-2-yl)-2-propen-1-one], the half-maximal inhibitory concentration (IC50) was over 5 µM in experiment [1], 39 nM in experiment [2] (setting [4]) and 1410 nM in experiment [3].

As to `C=CC(=O)N1CC2(CCN(c3nc4c(c(N[C@H](CC5=NC(C)(C)C(=O)N5)CC(C)C)n3)CCCC4)C2)C1` [Example 1-12, 5,5-dimethyl-2-((2S)-4-methyl-2-((2-(2-(2-propenoyl)-2,6-diazaspiro[3.4]octan-6-yl)-5,6,7,8-tetrahydro-4-quinazolinyl)amino)pentyl)-3,5-dihydro-4H-imidazol-4-one], the IC50 is over 25 µM in experiment [1], 3930 nM in experiment [2] (setting [4]) and 10500 nM in experiment [3].

As to `C=CC(=O)N1CC2(CCN(c3nc4c(c(N[C@H](Cc5ncc[nH]5)CC(C)C)n3)CCCC4)C2)C1` [Example 1-23, 1-(6-(4-(((2S)-1-(1H-imidazol-2-yl)-4-methyl-2-pentanyl)amino)-5,6,7,8-tetrahydro-2-quinazolinyl)-2,6-diazaspiro[3.4]octan-2-yl)-2-propen-1-one], the IC50 in experiment [1] was over 5 µM; in experiment [2] (setting [4]), 1160 nM; in experiment [3], 2830 nM.

With `C=CC(=O)N1CC2(CCN(c3nc4c(c(N[C@H](Cc5ccon5)CC(C)C)n3)CCC(C)(C)C4)C2)C1` [Example 1-48, 1-(6-(7,7-dimethyl-4-(((2S)-4-methyl-1-(1,2-oxazol-3-yl)-2-pentanyl)amino)-5,6,7,8-tetrahydro-2-quinazolinyl)-2,6-diazaspiro[3.4]octan-2-yl)-2-propen-1-one], the values for the IC50 in experiment [1], in experiment [2] (setting [4]) and in experiment [3] were 15.8 µM, 53 nM and 49 nM, respectively.

Consider `C=CC(=O)N1CC2(CCN(c3nc(N[C@H](CC(=O)NC)CC(C)C)c4ncc(C)cc4n3)C2)C1` [Example 1-34, (3S)-N,5-dimethyl-3-((7-methyl-2-(2-(2-propenoyl)-2,6-diazaspiro[3.4]octan-6-yl)pyrido[3,2-d]pyrimidin-4-yl)amino)hexanamide], for which the IC50 in experiment [1] was over 25 µM; in experiment [2] (setting [4]), 372 nM; in experiment [3], 217 nM.

Turning to `C=CC(=O)N1CC2(CCN(c3nc4c(c(N[C@H](Cc5cc(C)no5)CC(C)C)n3)CCC(C)(C)C4)C2)C1` [Example 1-49, 1-(6-(7,7-dimethyl-4-(((2S)-4-methyl-1-(3-methyl-1,2-oxazol-5-yl)-2-pentanyl)amino)-5,6,7,8-tetrahydro-2-quinazolinyl)-2,6-diazaspiro[3.4]octan-2-yl)-2-propen-1-one], the values for the IC50 in experiment [1], in experiment [2] (setting [4]) and in experiment [3] were 11.6 µM, 93 nM and 218 nM, respectively.

Consider `C=CC(=O)N1CC2(CCN(c3nc4c(c(N[C@@H](CC(C)C)Cn5cncn5)n3)CCC(C)(C)C4)C2)C1` [Example 1-45, 1-(6-(7,7-dimethyl-4-(((2S)-4-methyl-1-(1H-1,2,4-triazol-1-yl)-2-pentanyl)amino)-5,6,7,8-tetrahydro-2-quinazolinyl)-2,6-diazaspiro[3.4]octan-2-yl)-2-propen-1-one], for which the IC50 is over 25 µM in experiment [1], 1510 nM in experiment [2] (setting [4]) and 985 nM in experiment [3].

As for `C=CC(=O)N1CC2(C[C@@H](CO)N(c3nc4c(c(N[C@H](CC(=O)NC)CC(C)C)n3)CCCC4)C2)C1` (single isomer, unassigned) [Example 1-24-2], the IC50 in experiment [1] was over 25 µM; in experiment [2] (setting [4]) it was 59100 nM; in experiment [3], over 25000 nM.

Consider `C=CC(=O)N1CC2(CCN(c3nc4c(c(N[C@H](Cc5cc(C)on5)CC(C)C)n3)CCC(C)(C)C4)C2)C1` [Example 1-53, 1-(6-(7,7-dimethyl-4-(((2S)-4-methyl-1-(5-methyl-1,2-oxazol-3-yl)-2-pentanyl)amino)-5,6,7,8-tetrahydro-2-quinazolinyl)-2,6-diazaspiro[3.4]octan-2-yl)-2-propen-1-one], for which the IC50 in experiment [1] is over 5 µM; in experiment [2] (setting [4]) it was 24 nM; in experiment [3] it was 994 nM.

On to `C=CC(=O)N1CC2(CCN(c3nc4c(c(N[C@H](CC(=O)NC)CC(C)C)n3)CCC(C(F)(F)F)C4)C2)C1` (stereo partly drawn) [Example 1-32, (3S)-N,5-dimethyl-3-((2-(2-(2-propenoyl)-2,6-diazaspiro[3.4]octan-6-yl)-7-(trifluoromethyl)-5,6,7,8-tetrahydro-4-quinazolinyl)amino)hexanamide], for which the half-maximal inhibitory concentration (IC50) is over 25 µM in experiment [1], 57 nM in experiment [2] (setting [4]) and 24 nM in experiment [3].

`C=CC(=O)N1CC2(CCN(c3nc(N[C@H](CC(=O)NC)CC(C)C)c4ccc(Cl)cc4n3)C2)C1` [Example 1-30, (3S)-3-((7-chloro-2-(2-(2-propenoyl)-2,6-diazaspiro[3.4]octan-6-yl)-4-quinazolinyl)amino)-N,5-dimethylhexanamide]: the IC50 in experiment [1] is 14.6 µM; in experiment [2] (setting [4]), 265 nM; in experiment [3] it was 112 nM.

With `C=CC(=O)N1CC2(CCN(c3nc(N[C@H](CC(=O)NC)CC(C)C)c4occc4n3)C2)C1` [Example 1-7, (3S)-N,5-dimethyl-3-((2-(2-(2-propenoyl)-2,6-diazaspiro[3.4]octan-6-yl)furo[3,2-d]pyrimidin-4-yl)amino)hexanamide], the IC50 in experiment [1] was over 5 µM; in experiment [2] (setting [5]) it was 494 nM; in experiment [3], 58200 nM.

Regarding `C=CC(=O)N1CC2(CCN(c3nc(N[C@H](CC(=O)NC)CC(C)C)c4ccc(C)cc4n3)C2)C1` [Example 1-25, (3S)-N,5-dimethyl-3-((7-methyl-2-(2-(2-propenoyl)-2,6-diazaspiro[3.4]octan-6-yl)-4-quinazolinyl)amino)hexanamide], the IC50 in experiment [1] was over 5 µM; in experiment [2] (setting [4]) it was 339 nM; in experiment [3], 921 nM.

Take `C=CC(=O)N1CC2(CCN(c3nc4c(c(N[C@H](Cc5c[nH]nn5)CC(C)C)n3)CCC(C)(C)C4)C2)C1` [Example 1-55, 1-(6-(7,7-dimethyl-4-(((2S)-4-methyl-1-(1H-1,2,3-triazol-4-yl)-2-pentanyl)amino)-5,6,7,8-tetrahydro-2-quinazolinyl)-2,6-diazaspiro[3.4]octan-2-yl)-2-propen-1-one]: the IC50 in experiment [1] is over 5 µM; in experiment [2] (setting [4]), 57 nM; in experiment [3], 1270 nM.

As for `C=CC(=O)N1CC2(CCN(c3nc(N[C@H](CC(=O)NC)CC(C)C)c4ncc(-c5nccs5)cc4n3)C2)C1` [Example 1-36, (3S)-N,5-dimethyl-3-((2-(2-(2-propenoyl)-2,6-diazaspiro[3.4]octan-6-yl)-7-(1,3-thiazol-2-yl)pyrido[3,2-d]pyrimidin-4-yl)amino)hexanamide], the IC50 is over 5 µM in experiment [1], 23 nM in experiment [2] (setting [4]) and 379 nM in experiment [3].

Consider `C=CC(=O)N1CC2(CCN(c3nc4c(c(N[C@H](CC(=O)NC)CC(C)C)n3)OCCC4)C2)C1` [Example 1-31, (3S)-N,5-dimethyl-3-((2-(2-(2-propenoyl)-2,6-diazaspiro[3.4]octan-6-yl)-7,8-dihydro-6H-pyrano[3,2-d]pyrimidin-4-yl)amino)hexanamide], for which the figures for the IC50 in experiment [1], in experiment [2] (setting [4]) and in experiment [3] were over 25 µM, 428 nM and 261 nM, respectively.

With `C=CC(=O)N1CC2(CCN(c3nc(N[C@H](CC(=O)NC)CC(C)C)c4c(ncn4C)n3)C2)C1` [Example 1-14, (3S)-N,5-dimethyl-3-((7-methyl-2-(2-(2-propenoyl)-2,6-diazaspiro[3.4]octan-6-yl)-7H-purin-6-yl)amino)hexanamide], the values for the IC50 in experiment [1], in experiment [2] (setting [4]) and in experiment [3] were over 25 µM, 196000 nM and over 25000 nM, respectively.

In the case of `C=CC(=O)N1CC2(CCN(c3nc4c(c(N[C@H](Cc5ncc[nH]5)CC(C)C)n3)CCC(C)(C)C4)C2)C1` [Example 1-54, 1-(6-(4-(((2S)-1-(1H-imidazol-2-yl)-4-methyl-2-pentanyl)amino)-7,7-dimethyl-5,6,7,8-tetrahydro-2-quinazolinyl)-2,6-diazaspiro[3.4]octan-2-yl)-2-propen-1-one], the IC50 is over 5 µM in experiment [1], 49 nM in experiment [2] (setting [4]) and 1320 nM in experiment [3].

As to `C=CC(=O)N1CC2(CCN(c3nc4c(c(N[C@@H](CC(C)C)Cn5cccn5)n3)CCC(C)(C)C4)C2)C1` [Example 1-46, 1-(6-(7,7-dimethyl-4-(((2S)-4-methyl-1-(1H-pyrazol-1-yl)-2-pentanyl)amino)-5,6,7,8-tetrahydro-2-quinazolinyl)-2,6-diazaspiro[3.4]octan-2-yl)-2-propen-1-one], the IC50 in experiment [1] was 20.2 µM; in experiment [2] (setting [4]) it was 162 nM; in experiment [3], 122 nM.

As to `C=CC(=O)N1CC2(CCN(c3nc4c(c(N[C@H](CC(=O)NC)CC(C)C)n3)CN(C(C)=O)C4)C2)C1` [Example 1-9, (3S)-3-((6-acetyl-2-(2-(2-propenoyl)-2,6-diazaspiro[3.4]octan-6-yl)-6,7-dihydro-5H-pyrrolo[3,4-d]pyrimidin-4-yl)amino)-N,5-dimethylhexanamide], the IC50 in experiment [1] is over 5 µM; in experiment [2] (setting [5]), 472 nM; in experiment [3], over 5000 nM.
